Literature values in patent US20230149268A1, “MULTI-PHASE COSMETIC COMPOSITION COMPRISING AT LEAST TWO IMMISCIBLE OILY PHASES” (CHANEL PARFUMS BEAUTE, priority 2020, published 2023).

details: Table 1, known values, fatty acids

δd | δh | δp | SMILES
16.1 | 4.7 | 2.7 | CCCCCCCCCCCCCCCCCCCC(=O)O [Arachidic acid C20:0, Arachidic acid]
16.3 | 8.6 | 4.2 | CCCCCCCCCC(=O)O [Capric acid C10:0, Capric acid]
16.3 | 10.1 | 5.2 | CCCCCCCC(=O)O [Caprylic acid C8:0, Caprylic acid]
16.3 | 4.5 | 2.6 | CCCCCCCC/C=C\CCCCCCCCCCCC(=O)O [Erucic acid C22:1, Erucic acid]
16.4 | 5.1 | 2.9 | CCCCCCCCCC/C=C\CCCCCCCC(=O)O [Gadoleic acid C20:1, Gadoleic acid]
16.3 | 7.5 | 4 | CCCCCCCCCCCC(=O)O [Lauric acid C12:0, Lauric acid]
16.1 | 3.9 | 2.4 | CCCCCCCCCCCCCCCCCCCCCCCC(=O)O [Lignoceric acid C24:0, Lignoceric acid]
16.7 | 6.1 | 3.1 | CCCCC/C=C\C/C=C\CCCCCCCC(=O)O [Linoleic acid C18:2, Linoleic acid]
16.2 | 5.4 | 2.8 | CCCCCCCCCCCCCCCCC(=O)O [Margaric acid C17:0, Margaric acid]
16.3 | 6.6 | 3.3 | CCCCCCCCCCCCCC(=O)O [Myristic acid C14:0, Myristic acid]
16.4 | 5.5 | 3 | CCCCCCCC/C=C\CCCCCCCC(=O)O [Oleic acid C18:1, Oleic acid]
16.2 | 5.8 | 3.3 | CCCCCCCCCCCCCCCC(=O)O [Palmitic acid C16:0, Palmitic acid]
16.5 | 6.3 | 3.4 | CCCCCC/C=C\CCCCCCCC(=O)O [Palmitoleic acid C16:1, Palmitoleic acid]
16.5 | 8.2 | 4.4 | CCCCCC[C@@H](O)C/C=C\CCCCCCCC(=O)O [Ricinoleic acid]
16.2 | 5.2 | 2.8 | CCCCCCCCCCCCCCCCCC(=O)O [Stearic acid C18:0, Stearic acid]

SMILES | δd | δh | δp
CCCCCCCCCCCCCCCCCCCCCC(=O)O [Behenic acid C22:0, Behenic acid] | 16.2 | 4.3 | 2.3
